Data from US20220411480A1, “ANTITUMOR PEPTIDE AND USE THEREOF” (TOAGOSEI CO., LTD, priority 2018, published 2022).
Residues, ends and D or L forms follow the SMILES beside them.

Experiments:
[1] = Antitumor activity evaluation test (1), cell viability by Cell Counting Kit-8 (WST-8); format: cell-based, human; conditions: peptide 25 μM, 48 hours, relative to culture medium containing no peptide = 100%; read-out: A2058 cell viability (survival rate)
Procedure: (§1) The antitumor activity of the sample peptides synthesized in Test Example 1 was evaluated using human-derived cultured tumor cells as targets.
(§2) Specifically, currently commercially available human melanoma (A2058) cell lines were used as test tumor cells. In addition, a normal human mammary epithelial cell culture line (MCF-12F) was used for comparison. Here, culture solutions of respective cells are as follows. • (1) A2058 cells:
(§3) DMEM culture medium including 2 mM L-glutamine, 0.1 mM of non-essential amino acids, 50 units/mL of penicillin, 50 μg/mL of streptomycin, and 10% fetal bovine serum (FBS) (product, commercially available from Wako Pure Chemical Industries, Ltd.). • (2) MCF-12F cells:
(§4) DMEM/F12 culture medium including 20 ng/mL of recombinant EGF, 10 μg/mL of insulin, 0.5 μg/mL of hydrocortisone, and 10% FBS (product, commercially available from Wako Pure Chemical Industries, Ltd.).
(§5) A2058 cells and MCF-12F cells were cultured and prepared so that the number of cells per well in a 96-well plate was about 5×10^3. An amount of the culture medium in this case was 100 μL per well.
(§6) Next, the 96-well plate was placed in a CO2 incubator and pre-incubated under conditions of 37° C. and 5% CO2 for about 1 day (21 hours to 24 hours).
(§7) Then, peptide-containing test culture mediums for each concentration were prepared so that the concentrations of the sample peptides to be evaluated were 12.5 μM and 25 μM, and supplied to wells (that is, wells after the pre-incubation) in which 90μL of cells to be evaluated were cultured in each well. Then, the 96-well plate was returned to the CO2 incubator and incubated under conditions of 37° C. and 5% CO2 for 48 hours.
(§8) Here, the number of test wells (n) at peptide concentrations in peptide addition test groups was set to 3. Therefore, the value of the result shown in the following table is an average value of the results obtained in three test wells. First, the cell viability (%) was determined as follows.
(§9) After the incubation for 48 hours was completed, the culture medium in each well was replaced with 100 μL of a fresh culture medium containing no peptide, and additionally, 10μL of a cell proliferation measurement reagent “Cell Counting Kit-8” (product, commercially available from Dojindo Molecular Technologies, Inc.) containing a “water-soluble tetrazolium salt (WST-8)” as a coloring reagent was added to each well. Then, the 96-well plate was returned to the CO2 incubator and incubated under conditions of 37° C., and 5% CO2 for 1.5 hours to 2 hours.
(§10) After the incubation was completed, the cell culture solution to which the reagent was added was collected and the cell viability (%) was evaluated according to a colorimetric method in which an absorbance at a wavelength of 450 nm (value corrected by the absorbance at a wavelength of 650 nm: A450-A650) was measured based on the reduction of the tetrazolium salt. Specifically, a measured value (measured absorbance) of a comparative test group in which the above incubation was performed for 48 hours simply in a culture medium containing no peptide was set as a cell viability of 100%, and the cell viability (%) was calculated from the measured absorbance of each test cell line as a relative value.
(§11) Specifically, a value (value multiplied by 100 for convenience) obtained by dividing the cell viability of target tumor cells (here, A2058 cells) when the sample peptides were added at a concentration of 12.5 μM or 25 μM measured as described above by the cell viability of comparative normal cells (here, MCF-12F cells) measured under the same conditions, that is,
(§12) {(A2058 cell viability)/(MCF-12F cell viability)}×100 was calculated as a specific cell viability of the tumor cells, and the test tumor cells selective antitumor activity with respect to normal cells was evaluated using such a specific cell viability as an index.

[2] = tested on: human melanoma (A2058) cell lines; test: as above; format: cell-based; conditions: 48 hours, A2058 versus normal MCF-12F cells
Procedure: as §1, §2, §3, §4, §5, §6, §7, §8, §9, §10, §11, §12

## CC[C@H](C)[C@H](NC(=O)[C@H](C)NC(=O)[C@H](CC(C)C)NC(=O)[C@H](CC(C)C)NC(=O)[C@H](CO)NC(=O)[C@H](CC(C)C)NC(=O)[C@@H](NC(=O)[C@H](CO)NC(=O)[C@H](C)NC(=O)[C@@H](NC(=O)[C@H](CC(C)C)NC(=O)[C@H](C)NC(=O)[C@@H](NC(=O)[C@H](Cc1ccccc1)NC(=O)[C@@H](NC(=O)CNC(=O)CNC(=O)[C@@H](N)CCC(=O)O)C(C)C)C(C)C)[C@@H](C)O)C(C)C)C(=O)N[C@@H](C)C(=O)N[C@@H](CC(C)C)C(=O)N[C@@H](CCC(=O)O)C(=O)N[C@@H](CCCNC(=N)N)C(=O)N[C@@H](CCCCN)C(=O)N[C@@H](CCCCN)C(=O)N[C@@H](CCCNC(=N)N)C(=O)N[C@@H](CCCNC(=N)N)C(=O)N[C@@H](CCC(N)=O)C(=O)N[C@@H](CCCNC(=N)N)C(=O)N[C@@H](CCCNC(=N)N)C(=O)N[C@@H](CCCNC(=N)N)C(N)=O [Sample 5] (H-EGGVFVALTASVLSLLAIALERKKRRQRRR-NH2; N-terminus assumed)
[1]
  viability: 5.5%
[2]; peptide 12.5 μM
  Specific cell viability {(A2058 cell viability)/(MCF-12F cell viability)}×100: 88.08
[2]; peptide 25 μM
  Specific cell viability {(A2058 cell viability)/(MCF-12F cell viability)}×100: 10.09

## CSCC[C@H](NC(=O)[C@H](C)N)C(=O)N[C@@H](Cc1ccc(O)cc1)C(=O)N[C@@H](CC(C)C)C(=O)N[C@@H](Cc1ccccc1)C(=O)N[C@@H](CC(C)C)C(=O)NCC(=O)N[C@@H](CC(N)=O)C(=O)N[C@@H](CC(C)C)C(=O)N[C@@H](C)C(=O)N[C@@H](C)C(=O)N[C@@H](CO)C(=O)N[C@@H](CC(=O)O)C(=O)N[C@@H](CC(C)C)C(=O)N[C@@H](CC(C)C)C(=O)N[C@@H](C)C(=O)NCC(=O)N[C@H](C(=O)N[C@@H](C)C(=O)N[C@@H](Cc1ccccc1)C(=O)N[C@H](C(=O)N[C@@H](C)C(=O)N[C@@H](CC(N)=O)C(=O)N[C@H](C(=O)N[C@@H](CC(C)C)C(=O)N[C@@H](CC(C)C)C(=O)N[C@@H](CO)C(=O)NCC(=O)N[C@@H](CO)C(=O)N[C@@H](CCCNC(=N)N)C(=O)N[C@@H](CCCCN)C(=O)N[C@@H](CCCCN)C(=O)N[C@@H](CCCNC(=N)N)C(=O)N[C@@H](CCCNC(=N)N)C(=O)N[C@@H](CCC(N)=O)C(=O)N[C@@H](CCCNC(=N)N)C(=O)N[C@@H](CCCNC(=N)N)C(=O)N[C@@H](CCCNC(=N)N)C(N)=O)[C@@H](C)O)C(C)C)C(C)C [Sample 1] (H-AMYLFLGNLAASDLLAGVAFVANTLLSGSRKKRRQRRR-NH2; N-terminus assumed)
[1]
  viability: 0.7%
[2]; peptide 12.5 μM
  Specific cell viability {(A2058 cell viability)/(MCF-12F cell viability)}×100: 114.85
[2]; peptide 25 μM
  Specific cell viability {(A2058 cell viability)/(MCF-12F cell viability)}×100: 16.67

## CC[C@H](C)[C@H](NC(=O)[C@H](Cc1ccccc1)NC(=O)CNC(=O)[C@H](Cc1ccc(O)cc1)NC(=O)[C@@H](N)C(C)C)C(=O)NCC(=O)N[C@@H](CC(C)C)C(=O)N[C@@H](CS)C(=O)N[C@@H](Cc1c[nH]c2ccccc12)C(=O)N[C@@H](CC(C)C)C(=O)N[C@@H](CC(C)C)C(=O)N[C@@H](C)C(=O)N[C@@H](C)C(=O)N[C@@H](CC(C)C)C(=O)N[C@@H](CC(C)C)C(=O)NCC(=O)N[C@@H](CCSC)C(=O)N[C@@H](CC(C)C)C(=O)N1CCC[C@H]1C(=O)N[C@@H](CC(C)C)C(=O)N[C@@H](CC(C)C)C(=O)N[C@@H](CCCNC(=N)N)C(=O)N[C@@H](CCCCN)C(=O)N[C@@H](CCCCN)C(=O)N[C@@H](CCCNC(=N)N)C(=O)N[C@@H](CCCNC(=N)N)C(=O)N[C@@H](CCC(N)=O)C(=O)N[C@@H](CCCNC(=N)N)C(=O)N[C@@H](CCCNC(=N)N)C(=O)N[C@@H](CCCNC(=N)N)C(N)=O [Sample 4] (H-VYGFIGLCWLLAALLGMLPLLRKKRRQRRR-NH2; N-terminus assumed)
[1]
  viability: 5.3%
[2]; peptide 12.5 μM
  Specific cell viability {(A2058 cell viability)/(MCF-12F cell viability)}×100: 46.80
[2]; peptide 25 μM
  Specific cell viability {(A2058 cell viability)/(MCF-12F cell viability)}×100: 35.10

## CC(C)C[C@H](NC(=O)CNC(=O)[C@H](CCC(=O)O)NC(=O)[C@H](CCCNC(=N)N)NC(=O)[C@H](CC(C)C)NC(=O)[C@H](Cc1ccccc1)NC(=O)[C@@H](N)Cc1c[nH]c2ccccc12)C(=O)N[C@@H](CC(C)C)C(=O)N[C@@H](Cc1ccccc1)C(=O)N[C@H](C(=O)N[C@@H](C)C(=O)N[C@@H](CC(C)C)C(=O)N[C@@H](C)C(=O)N[C@@H](C)C(=O)N[C@@H](CO)C(=O)N[C@H](C(=O)N[C@@H](Cc1ccccc1)C(=O)N[C@@H](CO)C(=O)N[C@@H](CC(C)C)C(=O)N[C@@H](CC(C)C)C(=O)N[C@@H](Cc1ccccc1)C(=O)N[C@@H](CCCNC(=N)N)C(=O)N[C@@H](CCCCN)C(=O)N[C@@H](CCCCN)C(=O)N[C@@H](CCCNC(=N)N)C(=O)N[C@@H](CCCNC(=N)N)C(=O)N[C@@H](CCC(N)=O)C(=O)N[C@@H](CCCNC(=N)N)C(=O)N[C@@H](CCCNC(=N)N)C(=O)N[C@@H](CCCNC(=N)N)C(N)=O)[C@@H](C)O)[C@@H](C)O [Sample 3] (H-WFLREGLLFTALAASTFSLLFRKKRRQRRR-NH2; N-terminus assumed)
[1]
  viability: 4.6%
[2]; peptide 12.5 μM
  Specific cell viability {(A2058 cell viability)/(MCF-12F cell viability)}×100: 68.20
[2]; peptide 25 μM
  Specific cell viability {(A2058 cell viability)/(MCF-12F cell viability)}×100: 25.41
